Drawing on patent US20240058450A1, “BCL-XL Inhibitory Compounds Having Low Cell Permeability and Antibody Drug Conjugates Including the Same” (AbbVie Inc., priority 2014, published 2024), this text covers Ki and EC50 for twelve compounds.

By Ki is commonly meant a measure of affinity in units of concentration, obtained from inhibition or displacement.

For one test, the target named is Bcl-xL (Homo sapiens, UniProt Q07817). The test can be described thus: Time Resolved-Fluorescence Resonance Energy Transfer (TR-FRET) binding assay, competition with probe F-Bak. Put shortly: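 TR-FRET binding assay run at room temperature for 2 h after mixing compound with Bcl-xL protein, F-Bak probe and Tb-labelled antibody. Test compounds diluted from a 2× 50 μM stock. Ki values derived via Wang's equation from 520/495 nm emission under 340 nm excitation, in the absence of serum or with 1% HS.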
Bcl-xL, sequence (Q07817 whole entry): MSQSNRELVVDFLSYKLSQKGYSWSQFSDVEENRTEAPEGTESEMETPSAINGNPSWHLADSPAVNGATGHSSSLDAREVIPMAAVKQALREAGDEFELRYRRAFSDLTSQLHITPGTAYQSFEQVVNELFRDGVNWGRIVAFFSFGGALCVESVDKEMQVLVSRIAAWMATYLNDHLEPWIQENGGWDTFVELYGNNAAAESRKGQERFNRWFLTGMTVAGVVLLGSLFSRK
(TR-FRET usually uses a lanthanide donor and a delayed reading to cut background.)

The test system of test [1] is Molt-4 human acute lymphoblastic leukemia cells. The test can be described thus: Molt-4 cell viability assay (CellTiter-Glo, 48 hours, 10% HS). It is filed as cell-based. The note with it: Homo sapiens, MOLT-4, 48 h, non-permeabilized cells. Put shortly: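 Cells were seeded at 12,500 per well in medium with 10% human serum and exposed to a 3-fold compound dilution series from 10 μM to 0.0005 μM. After 48 h, viable cells were quantified by CellTiter-Glo luminescence. Each concentration was run in duplicate on at least 3 occasions.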
For orientation: ATP-based viability assays read luminescence as a measure of living cells.

In test [2] the test system is permeabilized Bcl-xL dependent Molt-4 cells. The test can be described thus: Cytochrome C release in selectively (digitonin) permeabilized Molt-4 cells. The class given is cell-based, human. The conditions noted are these: Homo sapiens, MOLT-4, 4 h, 4 h treatment, read-out: Molt-4 Permeabilized Cyt C Release. An excerpt:
The permeabilization of the mitochondrial outer membrane to release proteins from the intermembrane space into the cytosol is a pivotal event in the process of apoptosis. Specifically, the release of cytochrome C triggers the formation of the apoptosome which, in turn, results in caspase activation and other events that will commit the cell to undergo programmed cell death (Goldstein el al., 2005, Cell Death and Differentiation 12:453). The process of mitochondrial outer membrane permeabilization (MOMP) is controlled by the Bcl-2 family members. It is promoted by the multidomain pro-apoptotic proteins Bax and Bak which, upon activation, oligomerize on the outer mitochondrial membrane and form pores to ultimately release cytochrome C. This action is antagonized by the antiapoptotic members, including Bcl-2 and Bcl-xL. Compounds that are capable of inhibiting Bcl-2 or Bcl-xL, for example, in cells that depend upon these proteins for survival, can cause activation of Bax and or Bak, MOMP, release of cytochrome C and the mentioned downstream steps in the apoptotic process. This process of cytochrome C release can be measured in cells via Western blot of both mitochrondrial and cytosolic fractions, and can be used a proxy measurement of apoptosis in cells.
As a means of detecting the ability of a Bcl-xL inhibitor with low cell-permeability to cause release of cytochrome C, the cells can be treated with an agent that causes selective pore formation in the plasma membrane, but not the mitochondrial membrane. Specifically, the cholesterol/phospholipid ratio is much higher in the plasma membrane than the mitochondrial membrane. […] This agent forms insoluble complexes with cholesterol leading to the segregation of cholesterol from its normal phospholipid binding sites. This action, in turn, leads to the formation of holes about 40-50 Å wide in the lipid bilayer. Once the plasma membrane is permeabilized, cytosolic components able to pass over digitonin-formed holes can be washed out, including the cytochrome C that was released from mitochondria to cytosol in the apoptotic cells ((Campos, 2006, Cytometry A 69(6):515-523)).
To determine if Bcl-xL inhibitors were inducing cell death through apoptosis, cytochrome C release was measured in Bcl-xL dependent Molt-4 cells following treatment Specifically, 1×10^6 cells were treated for 4 h (37° C., 5% CO2) with the test compounds in half-log dilutions starting at 3.0 μM and ending at 0.01 μM. Cells were then processed as described in Chen et al., 2011, Mol. Cancer Ther. 10:2340-2350 (the Bcl-2/Bcl-X(L)/Bcl-w inhibitor, navitoclax, enhances the activity of chemotherapeutic agents in vitro and in vivo.).

[3] abbreviates: in the presence of 1% HS, read-out: Bcl-xL Binding Ki (nM, 1% HS).
[4] abbreviates: without HS, read-out: Bcl-xL Binding Ki.

Like-named read-outs stand apart in the source and are kept apart here.

With `Cc1c(-c2ccc(N3CCc4cccc(C(=O)Nc5nc6ccccc6s5)c4C3)nc2C(=O)O)cnn1CC12CC3(C)CC(C)(C1)CC(OCCN(CCS(=O)(=O)O)C1CNC1)(C3)C2` [Example 1.60, 3-{1-[(3-{2-[azetidin-3-yl(2-sulfoethyl)amino]ethoxy}-5,7-dimethyltricyclo[3.3.1.1^3,7]dec-1-yl)methyl]-5-methyl-1H-pyrazol-4-yl}-6-[8-(1,3-benzothiazol-2-ylcarbamoyl)-3,4-dihydroisoquinolin-2 (1H)-yl]pyridine-2-carboxylic acid], the inhibitory constant (Ki) on Bcl-xL (setting [3]) is 0.049 nM; at Bcl-xL (setting [4]) it was less than 0.001 nM. The compound also came in with an EC50 in test [1] of 425 nM.

On to `Cc1c(-c2ccc(-c3ccc4cccc(C(=O)Nc5nc6ncccc6s5)c4c3)nc2C(=O)O)cnn1CC12CC3(C)CC(C)(C1)CC(OCCNCCS(=O)(=O)O)(C3)C2` [Example 1.54, 3-{1-[(3,5-dimethyl-7-[2-[(2-sulfoethyl)amino]ethoxy}tricyclo[3.3.1.1^3,7]dec-1-yl)methyl]-5-methyl-1H-pyrazol-4-yl}-6-[8-([1,3]thiazolo[4,5-b]pyridin-2-ylcarbamoyl)naphthalen-2-yl]pyridine-2-carboxylic acid], for which the Ki at Bcl-xL (setting [3]) was 0.11 nM; at Bcl-xL (setting [4]), less than 0.001 nM. Moreover, the EC50 in test [1] is more than 10000 nM.

For `CNCCOC12CC3(C)CC(C)(CC(Cn4ncc(-c5ccc(N6CCc7c(OCCN)ccc(C(=O)Nc8nc9ccccc9s8)c7C6)nc5C(=O)O)c4C)(C3)C1)C2` [Example 1.34, 6-[5-(2-aminoethoxy)-8-(1,3-benzothiazol-2-ylcarbamoyl)-3,4-dihydroisoquinolin-2 (1H)-yl]-3-[1-({3,5-dimethyl-7-[2-(methylamino)ethoxy]tricyclo[3.3.1.1^3,7]dec-1-yl}methyl)-5-methyl-1H-pyrazol-4-yl]pyridine-2-carboxylic acid], on Bcl-xL (setting [3]), the Ki turned out to be 0.031 nM. The compound further registered an EC50 in test [1] of 87.7 nM.

With `Cc1c(-c2ccc(N3CCc4cccc(C(=O)Nc5nc6ccccc6s5)c4C3)nc2C(=O)O)cnn1CC12CC3(C)CC(C)(C1)CC(OCCNCCS(=O)(=O)O)(C3)C2` [Example 1.2, 6-[8-(1,3-benzothiazol-2-ylcarbamoyl)-3,4-dihydroisoquinolin-2 (1H)-yl]-3-(1-[(3,5-dimethyl-7-{12-[(2-sulfoethyl)amino]ethoxy}tricyclo[3.3.1.1^3,7]dec-1-yl)methyl]-5-methyl-1H-pyrazol-4-yl}pyridine-2-carboxylic acid], the EC50 in test [2] is less than 0.5 nM. Also, the results for the Ki on Bcl-xL (setting [3]) and at Bcl-xL (setting [4]) were 0.16 nM and less than 0.001 nM, respectively.

Regarding `Cc1c(-c2ccc(N3CCc4cccc(C(=O)Nc5nc6ccccc6s5)c4C3)nc2C(=O)O)cnn1CC12CC3(C)CC(C)(C1)CC(OCCNCCOCCOCC(=O)O)(C3)C2` [Example 1.1, 6-[8-(1,3-benzothiazol-2-ylcarbamoyl)-3,4-dihydroisoquinolin-2 (1H)-yl]-3-[1-({3-[2-({2-[2-(carboxymethoxy)ethoxy]ethyl}amino)ethoxy]-5,7-dimethyltricyclo[3.3.1.1^3,7]dec-1-yl]methyl)-5-methyl-1H-pyrazol-4-yl]pyridine-2-carboxylic acid], the inhibition constant Ki is 0.09 nM on Bcl-xL (setting [3]) and less than 0.001 nM on Bcl-xL (setting [4]). The compound further displayed an EC50 in test [1] of 26 nM.

In the case of `Cc1c(-c2ccc(N3CCc4cccc(C(=O)Nc5nc6ccccc6s5)c4C3)nc2C(=O)O)cnn1CC12CC3(C)CC(C)(C1)CC(OCCNCC[C@H](O)[C@H](O)CO)(C3)C2` [Example 1.80], the results for the inhibition constant (Ki) at Bcl-xL (setting [3]) and at Bcl-xL (setting [4]) were 0.78 nM and 0.053 nM, respectively. In test [1], this compound came in with an EC50 of 355 nM.

As for `Cc1c(-c2ccc(N3CCc4cccc(C(=O)Nc5nc6ccccc6s5)c4C3)nc2C(=O)O)cnn1CC12CC3(C)CC(C)(C1)CC(OCCN(CCCN)CCS(=O)(=O)O)(C3)C2` [Example 1.61, 3-{1-[(3-{2-[(3-aminopropyl)(2-sulfoethyl)amino]ethoxy}-5,7-dimethyltricyclo[3.3.1.1^3,7]dec-1-yl)methyl]-5-methyl-1H-pyrazol-4-yl}-6-[8-(1,3-benzothiazol-2-ylcarbamoyl)-3,4-dihydroisoquinolin-2 (1H)-yl]pyridine-2-carboxylic acid], the Ki is 0.097 nM at Bcl-xL (setting [3]) and less than 0.001 nM at Bcl-xL (setting [4]). This compound also came in with an EC50 in test [1] of 255 nM.

Consider `Cc1c(-c2ccc(N3CCc4cccc(C(=O)Nc5nc6ccccc6s5)c4C3)nc2C(=O)O)cnn1CC12CC3(C)CC(C)(C1)CC(OCCNCCS(=O)(=O)N[C@H]1C(O)O[C@H](CO)[C@@H](O)[C@@H]1O)(C3)C2` (stereo partly drawn) [Example 1.3, 2-{[(2-{[2-({3-[(4-{6-[8-(1,3-benzothiazol-2-ylcarbamoyl)-3,4-dihydroisoquinolin-2 (1H)-yl]-2-carboxypyridin-3-yl}-5-methyl-1H-pyrazol-1-yl)methyl]-5,7-dimethyltricyclo[3.3.1.1^3,7]dec-1-yl)oxy)ethyl]amino)ethyl)sulfonyl]amino}-2-deoxy-D-glucopyranose], for which the inhibitory constant (Ki) is 0.18 nM on Bcl-xL (setting [3]) and 0.0011 nM at Bcl-xL (setting [4]). The EC50 in test [1] was found to be 23 nM.

As for `Cc1c(-c2ccc(-c3ccc4cccc(C(=O)Nc5nc6ccccc6s5)c4c3)nc2C(=O)O)cnn1CC12CC3(C)CC(C)(C1)CC(OCCNCCCS(=O)(=O)O)(C3)C2` [Example 1.35, 6-[8-(1,3-benzothiazol-2-ylcarbamoyl)naphthalen-2-yl]-3-{1-[(3,5-dimethyl-7-{2-[(3-sulfopropyl)amino]ethoxy}tricyclo[3.3.1.1^3,7]dec-1-yl)methyl]-5-methyl-1H-pyrazol-4-yl}pyridine-2-carboxylic acid], the figures for the Ki at Bcl-xL (setting [3]) and on Bcl-xL (setting [4]) were 0.439 nM and less than 0.001 nM, respectively. Further, the EC50 in test [1] was determined as 238 nM.

On to `Cc1c(-c2ccc(N3CCc4cccc(C(=O)Nc5nc6ccccc6s5)c4C3)nc2C(=O)O)cnn1CC12CC3(C)CC(C)(C1)CC(OCCN(CCS(=O)(=O)O)C1CCNCC1)(C3)C2` [Example 1.30, 6-[8-(1,3-benzothiazol-2-ylcarbamoyl)-3,4-dihydroisoquinolin-2 (1H)-yl]-3-{1-[(3,5-dimethyl-7-{2-[piperidin-4-yl(2-sulfoethyl)amino]ethoxy}tricyclo[3.3.1.1^3,7]dec-1-yl)methyl]-5-methyl-1H-pyrazol-4-yl}pyridine-2-carboxylic acid], for which the inhibitory constant (Ki) was 0.12 nM on Bcl-xL (setting [3]) and less than 0.001 nM on Bcl-xL (setting [4]). This compound had an EC50 in test [1] of 184 nM.

For the compound `Cc1c(-c2ccc(-c3ccc4c(c3)N(C(=O)Nc3nc5ccccc5s3)CCC4)nc2C(=O)O)cnn1CC12CC3(C)CC(C)(C1)CC(OCCNCCC(=O)O)(C3)C2` [Example 1.62, 6-[1-(1,3-benzothiazol-2-ylcarbamoyl)-1,2,3,4-tetrahydroquinolin-7-yl]-3-{1-[(3-{2-[(2-carboxyethyl)amino]ethoxy}-5,7-dimethyltricyclo[3.3.1.1^3,7]dec-1-yl)methyl]-5-methyl-1H-pyrazol-4-yl)pyridine-2-carboxylic acid], the Ki on Bcl-xL (setting [3]) was 0.2 nM; on Bcl-xL (setting [4]), less than 0.001 nM. This compound also had an EC50 in test [1] of 153 nM.

Regarding `CNCCOC12CC3(C)CC(C)(CC(Cn4ncc(-c5ccc(N6CCc7c(OCCCS(=O)(=O)O)ccc(C(=O)Nc8nc9ccccc9s8)c7C6)nc5C(=O)O)c4C)(C3)C1)C2` [Example 1.52, 6-[8-(1,3-benzothiazol-2-ylcarbamoyl)-5-(3-sulfopropoxy)-3,4-dihydroisoquinolin-2 (1H)-yl]-3-[1-({3,5-dimethyl-7-[2-(methylamino)ethoxy]tricyclo[3.3.1.1^3,7]dec-1-yl}methyl)-5-methyl-1H-pyrazol-4-yl]pyridine-2-carboxylic acid], the Ki is 0.0329 nM at Bcl-xL (setting [3]) and less than 0.001 nM on Bcl-xL (setting [4]). This compound displayed an EC50 in test [1] of 973 nM.
